Source: patent US20230017532A1 (Hoffmann-La Roche Inc., priority 2018, published 2023)
Structures can show the parent of a compound that is named as a salt.

system: Acinetobacter baumannii ATCC17978; assay: Antimicrobial susceptibility testing: 90% growth inhibitory concentration (IC90) determination, Iso-Sensitest broth, OD 600 nm; assay type: cell-based; details: 90% growth inhibitory concentration, Acinetobacter baumannii ATCC17978, Iso-Sensitest broth, OD 600 nm over 16 h; read-out: ATCC 17978 IC90
Procedure: Antimicrobial Susceptibility Testing:
90% Growth Inhibitory Concentration (IC90) Determination
The in vitro antimicrobial activity of the compounds was determined according to the following procedure:
The assay used a 10-points Iso-Sensitest broth medium to measure quantitatively the in vitro activity of the compounds against Acinetobacter baumannii ATCC17978 and Acinetobacter baumannii ATCC17961.
Stock compounds in DMSO were serially twofold diluted (e.g. range from 50 to 0.097 μM final concentration) in 384 wells microtiter plates and inoculated with 49 μl the bacterial suspension in Iso-Sensitest medium to have a final cell concentration of ˜5×10^(5) CFU/ml in a final volume/well of 50 ul/well. Microtiter plates were incubated at 35±2° C.
Bacterial cell growth was determined with the measurement of optical density at λ=600 nm each 20 minutes over a time course of 16 h. Growth inhibition was calculated during the logarithmic growth of the bacterial cells with determination of the concentration inhibiting 50% (IC50) and 90% (IC90) of the growth.
Table 1 provides the 90% growth inhibitory concentrations (IC90) in micromoles per liter of the compounds of present invention obtained against the strain Acinetobacter baumannii ATCC17978 and Acinetobacter baumannii ATCC17961.

SMILES | IC90
CCc1cc(Nc2nccn3c(-c4ccc(OC)c(F)c4F)cnc23)ccc1C(=O)NCCNCCN [Example 64, N-(2-((2-Aminoethyl)amino)ethyl)-4-((3-(2,3-difluoro-4-methoxyphenyl)imidazo[1,2-a]pyrazin-8-yl)amino)-2-ethylbenzamide] | 0.11 µM
COc1ccc(-c2cnc3c(Nc4ccc(C(=O)NCCOCCN)c(C)c4)nccn23)cc1 [Example 77] | 0.23 µM
CCc1cc(Nc2nccn3c(-c4ccc(OCC#N)c(F)c4F)cnc23)ccc1C(=O)NCCOCCN [Example 85, N-[2-(2-aminoethoxy)ethyl]-4-[[3-[4-(cyano-methoxy)-2,3-difluorophenyl]imidazo[1,2-a]pyrazin-8-yl]amino]-2-ethyl-benzamide;2,2,2-trifluoroacetic acid] | 0.055 µM
CCc1cc(Nc2nccn3c(-c4ccc(Cl)c(F)c4F)cnc23)ccc1C(=O)NCCOCCN [Example 87, N-[2-(2-aminoethoxy)ethyl]-4-[[3-(4-chloro-2,3-difluoro-phenyl)imidazo [1,2-a]pyrazin-8-yl]amino]-2-ethylbenzamide] | 0.18 µM

same assay, conditions: Acinetobacter baumannii, ATCC17978, 16 h, 90% growth inhibitory concentration, Acinetobacter baumannii ATCC17978, Iso-Sensitest broth, OD 600 nm over 16 h; read-out: ATCC 17978 IC90

SMILES | IC90
C#CCOc1ccc(-c2cnc3c(Nc4ccc(C(=O)NCCOCCN)c(CC)c4)nccn23)c(F)c1F [Example 69, N-(2-(2-aminoethoxy)ethyl)-4-((3-(2,3-difluoro-4-(prop-2-yn-1-yloxy)phenyl)imidazo[1,2-a]pyrazin-8-yl)amino)-2-ethylbenzamide] | 0.046 µM
C#CCOc1ccc(-c2cnc3c(Nc4ccc(C(=O)NCCCNCCO)c(CC)c4)nccn23)c(F)c1F [Example 73, 4-[[3-(2,3-difluoro-4-prop-2-ynoxy-phenyl)imidazo[1,2-a]pyrazin-8-yl]amino]-2-ethyl-N-[3-(2-hydroxyethylamino)propyl]benzamide] | 0.17 µM
COc1ccc(-c2cnc3c(Nc4ccc(C(=O)NCCOCCN)c(CCF)c4)nccn23)c(F)c1F [Example 74, N-[2-(2-aminoethoxy)ethyl]-4-[[3-(2,3-difluoro-4-methoxy-phenyl)imidazo[1,2-a]pyrazin-8-yl]amino]-2-(2-fluoroethyl)benzamide] | 0.046 µM
COc1ccc(-c2cnc3c(Nc4ccc(C(=O)NCCOCCN5CCOC5=O)c(C)c4)nccn23)cc1 [Example 76, 4-[[3-(4-methoxyphenyl)imidazo[1,2-a]pyrazin-8-yl]amino]-2-methyl-N-[2-[2-(2-oxo-1,3-oxazolidin-3-yl)ethoxy]ethyl] benzamide] | 0.72 µM
Cc1cc(Nc2nccn3c(-c4ccc(OC(F)F)cc4)cnc23)ccc1C(=O)NCCOCCNC(=O)CCC(=O)O [Example 78, 4-[2-[2-[[4-[[3-[4-(difluoromethoxy)phenyl]imidazo [1,2-a]pyrazin-8-yl]amino]-2-methylbenzoyl]amino]ethoxy]ethylamino]-4-oxobutanoic acid] | 1.2 µM
Cc1cc(Nc2nccn3c(-c4ccc(OC(F)F)cc4)cnc23)ccc1C(=O)NCCOCCN=C(N(C)C)N(C)C [Example 79, N-[2-[2-[bis (dimethylamino)methylidene-amino]ethoxy]ethyl]-4-[[3-[4-(difluoro-methoxy)phenyl]imidazo [1,2-a]pyrazin-8-yl]amino]-2-methylbenzamide] | 1.4 µM
Cc1cc(Nc2nccn3c(-c4ccc(Cl)c(F)c4F)cnc23)ccc1C(=O)NCCNCCO [Example 80, 4-[[3-(4-chloro-2,3-difluorophenyl)imidazo[1,2-a]pyrazin-8-yl]amino]-N-[2-(2-hydroxy-ethylamino)ethyl]-2-methyl-benzamide; hydrochloride] | 5.1 µM
Cc1cc(Nc2nccn3c(-c4ccc(OC(F)F)cc4)cnc23)ccc1C(=O)NCCOCCN1CCC(O)CC1 [Example 81, 4-[[3-[4-(difluoromethoxy)phenyl]imidazo [1,2-a]pyrazin-8-yl]amino]-N-[2-[2-(4-hydroxy-piperidin-1-yl)ethoxy]ethyl]-2-methylbenzamide] | 0.34 µM
Cc1cc(Nc2nccn3c(-c4ccc(OC(F)F)cc4)cnc23)ccc1C(=O)NCCOCCN1CC[C@H]2COC[C@@H]2C1 [Example 82, N-[2-[2-[(3aS, 7aR)-3,3a,4,6,7,7a-hexahydro-1H-furo[3,4-c]pyridin-5-yl]ethoxy]ethyl]-4-[[3-[4-(difluoromethoxy)phenyl]imidazo [1,2-a]pyrazin-8-yl]amino]-2-methylbenzamide] | 0.47 µM
Cc1cc(Nc2nccn3c(-c4ccc(OC(F)F)cc4)cnc23)ccc1C(=O)NCCOCCN1CCC2(COC2)C1 [Example 83, 4-[[3-[4-(difluoromethoxy)phenyl]imidazo [1,2-a]pyrazin-8-yl]amino]-2-methyl-N-[2-[2-(2-oxa-7-azaspiro [3.4]octan-7-yl)ethoxy]ethyl]benzamide] | 0.64 µM
CCc1cc(Nc2nccn3c(-c4ccc(OC)c(F)c4F)cnc23)ccc1C(=O)NCCOCCN [Example 86] | 0.05 µM
Cc1cc(Nc2nccn3c(-c4ccc(Cl)c(F)c4F)cnc23)ccc1C(=O)NCCOCCN [Example 88, N-[2-(2-aminoethoxy)ethyl]-4-[[3-(4-chloro-2,3-difluorophenyl)imidazo[1,2-a]pyrazin-8-yl]amino]-2-methylbenzamide; hydrochloride] | 0.21 µM
CCc1cc(Nc2nccn3c(-c4ccc(OC)cc4)cnc23)ccc1C(=O)NCCOCCNCCO [Example 89, 2-ethyl-N-[2-[2-(2-hydroxyethyl-amino)ethoxy]ethyl]-4-[[3-(4-methoxyphenyl)imidazo[1,2-a]pyrazin-8-yl]amino]benzamide] | 0.22 µM
Cc1cc(Nc2nccn3c(-c4ccc(OC(F)F)cc4)cnc23)ccc1C(=O)NCCOCCN [Example 90, N-[2-(2-aminoethoxy)ethyl]-4-[[3-[4-(difluoro-methoxy)phenyl]imidazo[1,2-a]pyrazin-8-yl]amino]-2-methylbenzamide; hydrochloride] | 0.23 µM
Cc1cc(Nc2nccn3c(-c4ccc(OC(F)F)cc4)cnc23)ccc1C(=O)NCCOCCN1CCC2(CCOCC2)C1 [Example 91, 4-[[3-[4-(difluoromethoxy)phenyl]imidazo [1,2-a]pyrazin-8-yl]amino]-2-methyl-N-[2-[2-(8-oxa-2-azaspiro[4.5]decan-2-yl)ethoxy]ethyl] benzamide] | 0.65 µM
CCc1cc(Nc2nccn3c(-c4ccc(Cl)c(F)c4F)cnc23)ccc1C(=O)NCCOCCNCCO [Example 92, 4-[[3-(4-chloro-2,3-difluoro-phenyl)imidazo [1,2-a]pyrazin-8-yl]amino]-2-ethyl-N-[2-[2-(2-hydroxyethyl-amino)ethoxy]ethyl]benzamide] | 0.26 µM
COCC#CCOc1ccc(-c2cnc3c(Nc4ccc(C(=O)NCCOCCN)c(C)c4)nccn23)cc1 [Example 93, N-[2-(2-aminoethoxy)ethyl]-4-[[3-[4-(4-methoxy-but-2-ynoxy)phenyl]imidazo[1,2-a]pyrazin-8-yl]amino]-2-methylbenzamide; formic acid] | 0.28 µM

same assay, conditions: Acinetobacter baumannii, ATCC17978, 16 h, read-out: ATCC 17978 IC90

SMILES | IC90
COc1ccc(-c2cnc3c(Nc4cc(F)c(C(=O)NCCOCCN)c(Cl)c4)nccn23)c(F)c1F [Example 60, dihydrochloride] | 0.091 µM
CCc1cc(Nc2nccn3c(-c4ccc(OC)c(F)c4F)cnc23)ccc1C(=O)NCCOCCOCCN [Example 65, N-(2-(2-(2-Aminoethoxy)ethoxy)ethyl)-4-((3-(2,3-difluoro-4-methoxyphenyl)imidazo[1,2-a]pyrazin-8-yl)amino)-2-ethylbenzamide dihydrochloride] | 0.072 µM
CC#CCOc1ccc(-c2cnc3c(Nc4ccc(C(=O)NCCOCCN)c(C)c4)nccn23)cc1 [Example 67, N-[2-(2-aminoethoxy)ethyl]-4-[[3-(4-but-2-ynoxyphenyl)imidazo[1,2-a]pyrazin-8-yl]amino]-2-methyl-benzamide; 2,2,2-trifluoroacetic acid] | 0.23 µM
Cc1cc(Nc2nccn3c(-c4ccc(OCC#N)c(F)c4)cnc23)ccc1C(=O)NCCOCCN [Example 68, N-[2-(2-aminoethoxy)ethyl]-4-[[3-[4-(cyanomethoxy)-3-fluoro-phenyl]imidazo[1,2-a]pyrazin-8-yl]amino]-2-methyl-benzamide; formic acid] | 0.22 µM
CCc1cc(Nc2nccn3c(-c4ccc(OC)c(F)c4F)cnc23)ccc1C(=O)NCCOCCNCC(=O)O [Example 70, 2-[2-[2-[[4-[[3-(2,3-difluoro-4-methoxy-phenyl)imidazo[1,2-a]pyrazin-8-yl]amino]-2-ethyl-benzoyl]amino]ethoxy]ethylamino]acetic acid; formic acid] | 0.49 µM
CCc1cc(Nc2nccn3c(-c4ccc(OC)c(F)c4F)cnc23)ccc1C(=O)NCCOC(C)(C)CN [Example 71, N-[2-(2-amino-1,1-dimethyl-ethoxy)ethyl]-4-[[3-(2,3-difluoro-4-methoxy-phenyl)imidazo[1,2-a]pyrazin-8-yl]amino]-2-ethyl-benzamide; formic acid] | 0.028 µM
COc1ccc(-c2cnc3c(Nc4ccc(C(=O)NCCOCCN)c(CC(F)F)c4)nccn23)c(F)c1F [Example 75, N-[2-(2-aminoethoxy)ethyl]-2-(2,2-difluoroethyl)-4-[[3-(2,3-difluoro-4-methoxy-phenyl)imidazo[1,2-a]pyrazin-8-yl]amino]benzamide; formic acid] | 0.16 µM
